Reference: patent US5362629A, “Detection of immunosuppressants” (President and Fellows of Harvard College, priority 1991, dated 1994)
Entries after “also recorded” stand apart in the source; their conditions may differ.

Experiments:
calcineurin = molecular target: T1, calcineurin (Bos taurus, UniProt P48452+P63099); assay: Calcineurin phosphatase assay with 32P-phosphopeptide (RII subunit) substrate; type: biochemical, bovine; details: in the presence or absence of calmodulin; Ca2+
T1 construct: Bovine brain calcineurin and calmodulin were purchased from Sigma Chemical; purchased Sigma Chemical (St. Louis, Mo.); also a gift from Dr. Claude B. Klee; host or cells: bovine brain
Procedure: Calcineurin is known to be a Ca^2+, calmodulin-dependent protein phosphatase (Stewart et al., 1982, FEBS. Lett. 137:80). Using a phosphorylated peptide fragment from the regulatory subunit of cAMP-dependent kinase as a substrate, the phosphatase activity of the calcineurin was assayed in the presence of the immunophilins, the individual drugs, and their respective complexes with or without calmodulin.
Calcineurin phosphatase assays were carried out essentially as described previously (Manalan et al. 1983, Proc. Natl. Acad. Sci. USA 80:4291) with minor modifications. The substrate used was a synthetic peptide corresponding to the phosphorylation site of the RII subunit of cyclic AMP-dependent protein kinase […] (Sequence I.D. No. 1), which was phosphorylated with ^32 p-labeled ATP at the serine residue. The assay buffer consists of 40 mM TrisHCl (pH 7.5), 0.1 M NaCl, 6 mM MgCl2, 0.1 mM CaCl2, 0.1 mg/mL bovine serum albumin, and 0.5 mM dithiothreitol. The assay mixture (60 μl) contained 40 nM calcineurin, and 80 nM calmodulin (when present), and 2 μM phosphopeptide in addition to the assay buffer. […] Therefore, the drug solutions were prepared in DMSO as follows. DMSO stock solutions of the drugs were prepared (3000×final concentration) and then diluted 100×with the assay buffer. 2 μL was added to the incubation mixture giving a final concentration of DMSO of less than 0.04% in the final assay mixture. The incubations were carried out at 30° C. for 10 min before the reaction was stopped by addition of the stop solution (5% trichloroacetic acid, 0.1 M potassium phosphate) and loaded onto 0.5 ml Dowex AG 50W-X8 (200-800 mesh, Bio-Rad) columns. After the [^32 P]-inorganic phosphate was eluted from the column, it was mixed with 12 ml of ScintiVerse II (Fisher Scientific) and counted on a Beckman LS1801 Liquid Scintillation Systems. Bovine brain calcineurin and calmodulin were purchased from Sigma Chemical (St. Louis, Mo.). ^32 P-labeled phosphorylated peptide substrate, bovine brain calcineurin, and rabbit anti-calcineurin IgG were generous gifts from Dr. Claude B. Klee (National Cancer Institute, Department of Biochemistry). Goat-anti-rabbit IgG conjugated with alkaline phosphatase and the alkaline phosphatase substrates (BCIP and NBT) were obtained from Pierce (Rockford, ILL.). Glutathione Sepharose 4B was from Pharmacia LKB (Uppsala, Sweden). 506BD was prepared by Thomas J. Wandless and Patricia K. Somers in the Harvard laboratory.

[1] = molecular target: T2, calcineurin-Ca2+/calmodulin (Bos taurus, UniProt P48452+P63099); assay: Calcineurin phosphatase assay with para-nitrophenyl phosphate; type: biochemical, bovine; details: Ca2+ and calmodulin present
T2 construct: Bovine brain calcineurin and calmodulin were purchased from Sigma Chemical; purchased Sigma Chemical (St. Louis, Mo.); also a gift from Dr. Claude B. Klee; host or cells: bovine brain
From the text: The small para-nitrophenyl phosphate reagent presumably interacts with calcineurin nearly exclusively via active site residues, whereas the phosphopeptide, which is comprised of a sequence derived from the phosphorylation site on the RII subunit of cyclic AMP-dependent protein kinase (a calcineurin substrate) (Blumenthal et al., 1986, J. Biol. Chem 261:8140), is presumed to make extensive contact with the enzyme.

[2] = tested on: proteins of Mr 61,000, 57,000, 17,000, and 15,000 from calf thymus (calcineurin A, calcineurin B, calmodulin); assay: Glutathione Sepharose adsorption of target proteins from tissue extracts by immunophilin-drug affinity matrices; type: binding, bovine; details: calf thymus extract; Ca2+ and Mg2+ in incubation buffer
Procedure: Several factors were taken into account in the design of the first glutathione-Sepharose adsorption experiment. […] In addition, in some experiments, a homobifunctional cross-linking reagent, dimethyl 3,3'-dithiobispropionimidate (DTBP) (Wang et al. 1974, J. Biol. Chem. 249:8005) was added to the incubation mixture to retain target proteins whose affinity for immunophilin or immunophilin-drug complex was not sufficient to withstand the washes following adsorption of the complex to the solid phase.
Adsorption of calcineurin-calmodulin with GFK-FK506 using glutathione Sepharose was performed as follows. Crude tissue extracts, fresh bovine calf brain, thymus, or spleen (Research 87, Revere, MA), were homogenized (1:3 W/V) in 20 mM Tris HCl (pH 6.8), 0.25 mM NaCl, 2 mM β-mercaptoethanal, 0.02% NaN3, 1 mM PMSF, and 5% glycerol. The homogenate was centrifuged at 8,000×g for 4 h. The supernatant was separated and the pellet was resuspended in an equal volume of the same buffer. Centrifugation at 8,000 ×g for 4 h gave a second supernatant. The two supernatants were mixed (1:1 v/v) and centrifuged at 30,000×g for 45 min. The supernatant was then filtered through a 0.45 μm filter and kept at 4° C. before use.
The crude tissue extracts were pre-incubated with glutathione Sepharose (about 1:100 to 1:200 dilution of the sepharose) at 4° C. for 1-3 h to remove the endogenous glutathione binding proteins, including glutathione S-transferases. […] After incubation at 4° C. on a nutator for 1.5 h, 25 μL of 50% (V/V) glutathione Sepharose in buffer A was added and incubation was continued for an additional 0.5 to 2 h. The Sepharose beads were precipitated by centrifugation on a microcentrifuge at 5,000×g for 2 min. The glutathione Sepharose beads were washed three times with 0.5 mL buffer A containing 0.2% Triton X-100. The washed glutathione Sepharose was then resuspended in 25 μL of 2× SDS sample buffer, heated in boiling water for 3 min, and centrifuged for 2 min. The supernatant was subjected to SDS-PAGE followed by silver staining. […]

[3] = tested on: T-cell receptor-mediated signaling pathway; details: cited from earlier work
[4] = tested on: set of four target proteins (calcineurin-calmodulin) adsorbed on GFK-FK506; assay: Competitive binding / elution of target proteins from glutathione-Sepharose-immobilized GFK-FK506; parameters: species or system bovine
Procedure: A competitive binding experiment was carried out with recombinant FKBP12 and cyclophilin A (Standaert et al., 1990, supra, Lui et al., 1990, Proc. Natl. Acad. Sci. 87:2304) and their respective drug complexes. After the set of four target proteins were adsorbed onto the glutathione Sepharose affinity matrix, elution was attempted with immunophilins, the drugs, or the immunophilin-drug complexes. The set of four proteins were eluted from glutathione-sepharoseimmobilized GFK-FK506 with both recombinant complexes. In contrast, these proteins were not eluted by free immunophilins or unbound drugs.
To further test the importance of divalent metal ions for interaction between immunophilin-drug complexes and target proteins, the adsorption experiment was performed in the presence of the Ca^2+ chelator EGTA.

T1 sequence (P63099 2-170 limits assumed, other chains not shown): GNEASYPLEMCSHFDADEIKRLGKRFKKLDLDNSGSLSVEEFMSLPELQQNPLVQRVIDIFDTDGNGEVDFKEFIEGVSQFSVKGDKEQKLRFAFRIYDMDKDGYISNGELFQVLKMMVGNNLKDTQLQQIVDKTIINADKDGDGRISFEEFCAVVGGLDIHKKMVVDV

Q: For “cyclophilin A: recombinant human immunophilin which complexes with cyclosporine A”, which “effect on phosphatase activity of calcineurin towards the phosphopeptide substrate” value (calcineurin) is on record?
A: no effect

Q: And the “effect on phosphatase activity of calcineurin towards para-nitrophenyl phosphate” value [1]?
A: no effect

Q: For CO[C@H]1C[C@@H]2CC[C@@H](C)[C@@](O)(O2)C(=O)C(=O)N2CCCC[C@H]2C(=O)O[C@H]([C@H](C)C[C@@H]2CC[C@@H](O)[C@H](OC)C2)CC(=O)[C@H](C)/C=C(\C)[C@@H](O)[C@@H](OC)C(=O)[C@H](C)C[C@H](C)/C=C/C=C/C=C/1C [rapamycin], which “retention/adsorption of the Mr 61,000, 57,000, 17,000 and 15,000 proteins by the affinity matrix” value (shortened to “retention/adsorption”) [2] is on record?
A: do not retain

Q: What about the “effect on phosphatase activity of calcineurin towards the phosphopeptide substrate” value (calcineurin) of the same compound?
A: no effect

Q: And the “effect on phosphatase activity of calcineurin towards para-nitrophenyl phosphate” value [1]?
A: no effect

Q: And the “inhibition of TCR-mediated signaling” value ([3]; previous observations)?
A: inhibits different, calcium-independent signaling pathways

Q: For O=C(O)CN(CCOCCOCCN(CC(=O)O)CC(=O)O)CC(=O)O [EGTA], which “elution of the four target proteins from the immobilized immunophilin-drug matrix” value [4] is on record?
A: able to effectively elute; also recorded: capable of eluting

Q: With “FKBP12: recombinant human immunophilin binding FK506 and rapamycin” as the compound, how does the “retention/adsorption” value [2] read?
A: do not retain

Q: What about the “effect on phosphatase activity of calcineurin towards the phosphopeptide substrate” value (calcineurin) of the same compound?
A: no effect

Q: And the “effect on phosphatase activity of calcineurin towards para-nitrophenyl phosphate” value [1]?
A: no effect

Q: For C=CC[C@@H]1/C=C(\C)C[C@H](C)C[C@H](OC)[C@H]2O[C@@](O)(C(=O)C(=O)N3CCCC[C@H]3C(=O)O[C@H](/C(C)=C/[C@@H]3CC[C@@H](O)[C@H](OC)C3)[C@H](C)[C@@H](O)CC1=O)[C@H](C)C[C@@H]2OC [FK506], which “retention/adsorption” value [2] is on record?
A: do not retain

Q: What about the “effect on phosphatase activity of calcineurin towards the phosphopeptide substrate” value (calcineurin) of the same compound?
A: no effect

Q: And the “effect on phosphatase activity of calcineurin towards para-nitrophenyl phosphate” value [1]?
A: no effect

Q: What about the “concentration needed to interfere with T-cell receptor-mediated signaling, relative to CsA” value ([3]; lower concentrations than CsA) of the same compound?
A: 100 fold
